From paper PMC9645662, “Dual role of an essential HtrA2/Omi protease in the human malaria parasite: Maintenance of mitochondrial homeostasis and induction of apoptosis-like cell death under cellular stress” (PLOS Pathogens, 2022)

Target: T1, PfHtrA2 (HtrA2/Omi serine protease) (Plasmodium falciparum, UniProt A0A143ZXD4)
T1 construct: gene PF3D7_0812200; protease domain (135–290 aa; HtrA2-protease), histidine-tagged, expressed in E. coli
T1 sequence (A0A143ZXD4 135-290): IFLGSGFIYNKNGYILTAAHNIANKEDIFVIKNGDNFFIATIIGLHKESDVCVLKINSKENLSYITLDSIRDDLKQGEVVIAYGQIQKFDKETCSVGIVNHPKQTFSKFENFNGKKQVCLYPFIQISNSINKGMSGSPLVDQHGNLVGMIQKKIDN
Experiment: fluorogenic protease activity assay of the recombinant protease domain, concentration-dependent inhibition
Format: biochemical

O=C1C(=Cc2ccc(-c3ccccc3[N+](=O)[O-])o2)C(=O)N(c2ccccc2)C(=S)N1c1ccccc1 [ucf-101]
IC50: 8.1 µM
